# Measurements: PubChem BioAssay AID1259408 (Genetic Toxicology Data Bank (GENE-TOX), 2018)
# The source made the active and inactive calls. How the calls were made is not given here.
# Tested on: GENE-TOX genotoxicity assays, various organisms and cells
# Experiment: GENE-TOX mutagenicity studies
# Details: for call: Assay Type: In vivo carcinogenicity studies, Assay Code: CCG+L
# Source text: GENE-TOX provides genetic toxicology (mutagenicity) test data from expert peer review of open scientific literature for more than 3,000 chemicals from the United States Environmental Protection Agency (EPA). GENE-TOX was established to select assay systems for evaluation, review data in the scientific literature, and recommend proper testing protocols and evaluation procedures for these systems.
# GENE-TOX covers the years 1991 - 1998. It is no longer updated.
# This is an archive assay for GENE-TOX mutagenicity studies.
# [1] = Species/Cell Type: Drosophila melanogaster, Assay Type: Sex-linked recessive lethal gene mutation, Assay Code: SRLT, Evaluation Type: Evaluation A (Pre-1980)
# [2] = Species/Cell Type: Escherichia coli polA (W3119 vs P3478), Assay Type: Rec-assay, DNA effects (bacterial DNA repair), Assay Code: RE1+, Evaluation Type: Evaluation A (Pre-1980)
# [3] = Species/Cell Type: Human lymphocytes, Assay Type: Sister-chromatid exchange (SCE) in vitro, Assay Code: SCL+D, Dose Response: With dose response, Evaluation Type: Evaluation B (Post-1980)
# [4] = Species/Cell Type: Human, Assay Type: Sister-chromatid exchange (SCE) in vitro, Assay Code: SC1+D, Dose Response: With dose response, Evaluation Type: Evaluation B (Post-1980)
# [5] = Species/Cell Type: Mammalian polychromatic erythrocytes, Assay Type: Micronucleus test, chromosome aberrations, Assay Code: MNT+, Evaluation Type: Evaluation A (Pre-1980)
# [6] = Species/Cell Type: Nonhuman, Evaluation Type: Evaluation A (Pre-1980)
# [7] = Species/Cell Type: Nonhuman, Assay Type: Sister-chromatid exchange (SCE) in vitro, Assay Code: SC2+D, Dose Response: With dose response, Evaluation Type: Evaluation B (Post-1980)
# [8] = Species/Cell Type: Allium cepa, Assay Type: Chromosome aberrations, Assay Code: ALC+, Evaluation Type: Evaluation A (Pre-1980)
smiles,measurement,setting,value
CCOC(=O)NO,mutagenic call,[1],no conclusion
same,mutagenic call,[2],active; positive
same,mutagenic call,"Species/Cell Type: Human lymphocytes or leukocytes, Assay Type: Chromosome aberrations in vitro, Assay Code: CY7+, Evaluation Type: Evaluation A (Pre-1980)",active; positive
same,mutagenic call,[3],active; positive
same,mutagenic call,[4],active; positive
same,mutagenic call,[5],active; positive
same,mutagenic call,"Species/Cell Type: Mouse embryo (AKR/ME) cells, Assay Type: Cell transformation, Assay Code: CTK+, Evaluation Type: Evaluation A (Pre-1980)",active; positive
same,call,[6],active; positive
same,mutagenic call,[7],active; positive
same,mutagenic call,"Species/Cell Type: Nonhuman, Assay Type: Sister-chromatid exchange (SCE) in vivo, Assay Code: SC3+D, Dose Response: With dose response, Evaluation Type: Evaluation B (Post-1980)",active; positive
Oc1ccccc1O,mutagenic call,[8],active; positive
same,mutagenic call,[3],active; positive
same,mutagenic call,[4],active; positive
same,mutagenic call,"Species/Cell Type: Mammalian polychromatic erythrocytes, Assay Type: Micronucleus test, chromosome aberrations, Assay Code: MNTT, Evaluation Type: Evaluation B (Post-1980)",no conclusion
CCCCCN(C)N=O,mutagenic call,[2],active; positive
C=Cc1ccc(C)cc1,mutagenic call,[3],active; positive
same,mutagenic call,[4],active; positive
COc1cc(C)c(-c2csc(N(C)C(=O)Nc3ccc(Cl)cc3)n2)cc1OC,mutagenic call,"Species/Cell Type: Salmonella typhimurium, Assay Type: Forward and reverse gene mutation, host-mediated assay, Assay Code: HMA+, Evaluation Type: Evaluation A (Pre-1980)",active; positive
CCCCCc1cc(O)c2c(c1)OC(C)(C)[C@@H]1CCC(CO)=C[C@@H]21,mutagenic call,"Species/Cell Type: Human diploid fibroblasts, Assay Type: Unscheduled DNA synthesis (UDS) in vitro, DNA effects, Assay Code: UDH-, Evaluation Type: Evaluation A (Pre-1980)",inactive; negative
COc1nc(OC)nc(N2CC2)n1,mutagenic call,[8],active; positive
CCNc1nc(Cl)nc(NC(C)C)n1,mutagenic call,"Species/Cell Type: Aspergillus nidulans, Assay Type: Reverse gene mutation, Assay Code: ASR+*, Activation: With metabolic activation, Evaluation Type: Evaluation A (Pre-1980)",active; positive
same,mutagenic call,"Species/Cell Type: Drosophila melanogaster, Assay Type: Aneuploidy, sex chromosome gain, chromosome aberrations, Assay Code: DAGT, Evaluation Type: Evaluation A (Pre-1980)",no conclusion
same,mutagenic call,"Species/Cell Type: Drosophila melanogaster, Assay Type: Aneuploidy, whole sex chromosome loss, chromosome aberrations, Assay Code: DACT, Evaluation Type: Evaluation A (Pre-1980)",no conclusion
same,mutagenic call,[1],no conclusion
same,mutagenic call,"Species/Cell Type: Hordeum vulgare (barley), Assay Type: Chromosome aberrations, Assay Code: HOC+, Evaluation Type: Evaluation A (Pre-1980)",active; positive
same,mutagenic call,"Species/Cell Type: Neurospora crassa, Assay Type: Aneuploidy, chromosome aberrations, Assay Code: NEN-, Evaluation Type: Evaluation A (Pre-1980)",inactive; negative
same,mutagenic call,"Species/Cell Type: Saccharomyces cerevisiae, Assay Type: Mitotic recombination or gene conversion, Assay Code: YEC+*, Activation: With metabolic activation, Evaluation Type: Evaluation A (Pre-1980)",active; positive
same,mutagenic call,"Species/Cell Type: Tradescantia species, Assay Type: Gene mutation, Assay Code: TRM-, Evaluation Type: Evaluation A (Pre-1980)",inactive; negative
same,mutagenic call,"Species/Cell Type: Vicia faba, Assay Type: Chromosome aberrations, Assay Code: VIC+, Evaluation Type: Evaluation A (Pre-1980)",active; positive
same,mutagenic call,"Species/Cell Type: Zea mays (corn), Assay Type: Gene mutation, Assay Code: ZEM+F, Evaluation Type: Evaluation A (Pre-1980)",active; positive
Cc1nc(N)cc2c1[nH]c1ccccc12,mutagenic call,"Species/Cell Type: Human lymphocytes, Assay Type: Sister-chromatid exchange (SCE) in vitro, Assay Code: SCL+, Evaluation Type: Evaluation B (Post-1980)",active; positive
same,mutagenic call,"Species/Cell Type: Human, Assay Type: Sister-chromatid exchange (SCE) in vitro, Assay Code: SC1+, Evaluation Type: Evaluation B (Post-1980)",active; positive
same,mutagenic call,[7],active; positive
O=C1CN(CO)C(=O)CN1CO,mutagenic call,"Species/Cell Type: Arabidopsis species, Assay Type: Gene mutation, Assay Code: ARM-, Evaluation Type: Evaluation A (Pre-1980)",inactive; negative
O=Cc1ccccc1,mutagenic call,"Species/Cell Type: Neurospora crassa, Assay Type: Reverse gene mutation, Assay Code: NER+, Evaluation Type: Evaluation A (Pre-1980)",active; positive
CCC(=O)Oc1ccc2c(c1)CC[C@@H]1[C@@H]2CC[C@]2(C)[C@@H](OC(=O)CC)CC[C@@H]12,mutagenic call,"Species/Cell Type: Rat, Sex: Male, Assay Type: Sperm morphology, Assay Code: SPA+, Evaluation Type: Evaluation A (Pre-1980)",active; positive
COc1ccc(C(=O)/C(Br)=C\C(=O)O)cc1,mutagenic call,[5],active; positive
same,call,[6],active; positive
COP(=O)(Oc1cc(Cl)c(Br)cc1Cl)c1ccccc1 (centres undefined),mutagenic call,[7],active; positive
